# In US20220117964A1, “COMBINATION OF FAK INHIBITOR AND BTK INHIBITOR FOR TREATING A DISEASE” (ASCENTAGE PHARMA (SUZHU) CO., LTD., priority 2019, published 2022):
# Assays:
# YES-2 cells = assay: Colony formation assay; assay type: cell-based; conditions: 0.5 μM Compound 5, 0.25 μM Ibrutinib or both, 12 days
# Procedure: (§1) Growth inhibition was detected by colony formation assay. ESCC cells were inoculated in 6-well plates at about 500 cells/well, and treated with different inhibitors or DMSO, and then replaced with fresh medium containing with different inhibitors or DMSO every 3 to 4 days. The cells were stained with crystal violet (V5265, Sigma, St Louis, Mo., USA) on day 12. After washing twice with PBS, the cells were fixed with 1% paraformaldehyde and incubated for 15 minutes at room temperature. The cells were then washed twice with PBS and stained with 0.5% crystal violet for 15 minutes at room temperature.
# (§2) (1) The experimental method was as described in the items (1), (2), (5) of Example 2. […] The changes in signaling pathway of related proteins were determined by Western blotting assay.
# KYSE-150 cells = assay: Colony formation assay; assay type: cell-based, human; conditions: 1 μM Compound 5, 1 μM Ibrutinib or both, 12 days
# Procedure: as §1, §2
# [1] = system: phosphorylated-AKT (p-AKT, Ser397); assay: Western blot, KYSE-150 and KYSE-520 cells; assay type: cell-based; conditions: KYSE-150 (1 μM Compound 5, 1 μM Ibrutinib) and KYSE-520 (1 μM Compound 5, 0.5 μM Ibrutinib), 24 hours
# Procedure: The cells were lysed on ice with 1× cell lysis buffer containing 1% protease inhibitor (PMSF) and 1% phosphokinase inhibitor for 30 minutes, centrifuged at 12000 rpm and 4° C. for 15 minutes, and the supernatant protein lysate was collected. The protein concentration was measured by BCA protein concentration detection kit. The cell protein lysates (20 to 50 μg) were separated using 8-12% SDS-PAGE electrophoresis. The separated proteins were transferred to a PVDF membrane. The PVDF membrane was blocked with 5% BSA buffer at room temperature for 30 minutes to 1 hour, and then incubated overnight on a 4° C. shaker with 1× TBST containing primary antibody. The redundant primary antibody was eluted, and the membrane was washed 3 times with 1× TBST, 5 to 10 minutes for each time. The protein band membrane was incubated with horseradish peroxidase-labeled secondary antibody dilution for 1 hour at room temperature, and the membrane was washed 3 times with 1× TBST, 5 to 10 minutes for each time. The signal generation and detection were performed using an ECL chemiluminescence ultrasensitive colorimetric kit and a chemiluminescence imaging system. […]
# as §2
# [2] = system: phosphorylated MEK (p-MEK, Ser217/221); assay: Western blot, KYSE-150 and KYSE-520 cells; assay type: cell-based; conditions: KYSE-150 (1 μM Compound 5, 1 μM Ibrutinib) and KYSE-520 (1 μM Compound 5, 0.5 μM Ibrutinib), 24 hours
# Procedure: (§3) The cells were lysed on ice with 1× cell lysis buffer containing 1% protease inhibitor (PMSF) and 1% phosphokinase inhibitor for 30 minutes, centrifuged at 12000 rpm and 4° C. for 15 minutes, and the supernatant protein lysate was collected. The protein concentration was measured by BCA protein concentration detection kit. The cell protein lysates (20 to 50 μg) were separated using 8-12% SDS-PAGE electrophoresis. The separated proteins were transferred to a PVDF membrane. The PVDF membrane was blocked with 5% BSA buffer at room temperature for 30 minutes to 1 hour, and then incubated overnight on a 4° C. shaker with 1× TBST containing primary antibody. The redundant primary antibody was eluted, and the membrane was washed 3 times with 1× TBST, 5 to 10 minutes for each time. The protein band membrane was incubated with horseradish peroxidase-labeled secondary antibody dilution for 1 hour at room temperature, and the membrane was washed 3 times with 1× TBST, 5 to 10 minutes for each time. The signal generation and detection were performed using an ECL chemiluminescence ultrasensitive colorimetric kit and a chemiluminescence imaging system. The primary antibodies used in this experiment included: EGFR, (CST, Cat.4267S); phosphorylated EGFR (p-EGFR (Tyr1068)), (CST, Cat.3777T); FAK, (CST, Cat.3285S); phosphorylated FAK (p-FAK (Tyr397)), (CST, Cat.8556T); AKT, (CST, Cat.4685S); phosphorylated p-AKT (Ser473), (CST, Cat.9271S); ERK, (CST,Cat.4695S); phosphorylated ERK (p-ERK (Thr202/Tyr204)), (CST, Cat.4370T); phosphorylated MEK (p-MEK (Ser217/221)), (CST, Cat.9121S);BTK, (Immunoway, Cat. YM1294); C-Myc, (CST, Cat. 5605); phosphorylated C-Myc, (CST, Cat. 13748); Cyclin B1 (CST, Cat. 12231S), Cylin D1 (CST, Cat.2978S), GAPDH (ABGENT, Cat.AM1020B). The secondary antibodies used in this experiment included goat-anti-rabbit secondary antibody (Senta, Cat. Sc-2004) and goat-anti-mouse secondary antibody (Senta, Cat. Sc-2005).
# as §2
# Cyclin B1 = assay: Western blot, KYSE-150 and KYSE-520 cells; assay type: cell-based; conditions: KYSE-150 (1 μM Compound 5, 1 μM Ibrutinib) and KYSE-520 (1 μM Compound 5, 0.5 μM Ibrutinib), 24 hours
# Procedure: as §3, §2
# [3] = system: phosphorylated EGFR (p-EGFR, Tyr1068); assay: Western blot, KYSE-150 and KYSE-520 cells; assay type: cell-based; conditions: KYSE-150 (1 μM Compound 5, 1 μM Ibrutinib) and KYSE-520 (1 μM Compound 5, 0.5 μM Ibrutinib), 24 hours
# Procedure: as §3, §2
# [4] = system: phosphorylated ERK (p-ERK, Thr202/Tyr204); assay: Western blot, KYSE-150 and KYSE-520 cells; assay type: cell-based; conditions: KYSE-150 (1 μM Compound 5, 1 μM Ibrutinib) and KYSE-520 (1 μM Compound 5, 0.5 μM Ibrutinib), 24 hours
# Procedure: as §3, §2
# Cyclin D1 = assay: Western blot, KYSE-150 and KYSE-520 cells; assay type: cell-based; conditions: KYSE-150 (1 μM Compound 5, 1 μM Ibrutinib) and KYSE-520 (1 μM Compound 5, 0.5 μM Ibrutinib), 24 hours
# Procedure: as §3, §2
Compound,inhibitory effect on cell clone formation (YES-2 cells),inhibitory effect on cell clone formation (KYSE-150 cells),"protein expression level of phosphorylated-AKT (p-AKT, Ser397) [1]","protein expression level of phosphorylated MEK (p-MEK, Ser217/221) [2]",protein expression level of Cyclin B1 (Cyclin B1),"protein expression level of phosphorylated EGFR (p-EGFR, Tyr1068) [3]","protein expression level of phosphorylated ERK (p-ERK, Thr202/Tyr204) [4]",protein expression level of Cyclin D1 (Cyclin D1)
"Cc1cc(Nc2ncc(Cl)c(Nc3ccccc3S(=O)(=O)C(C)C)n2)c(OC(C)C)cc1C1=CCN(C2CCOCC2)CC1 [Compound 5, 5-chloro-N^2-(2-isopropoxy-5-methyl-4-(1-(tetrahydro-2H-pyran-4-yl)-1,2,3,6-tetrahydropyridin-4-yl)phenyl)-N^4-(2-(isopropylsulfonyl)phenyl)pyrimidine-2,4-diamine]",stronger inhibitory effects,stronger inhibitory effects,significantly decrease,,,,,
C=CC(=O)N1CCC[C@@H](n2nc(-c3ccc(Oc4ccccc4)cc3)c3c(N)ncnc32)C1 [Ibrutinib],,,,significantly decrease,significantly decrease,significantly decrease,significantly decrease,significantly decrease
